Assay results from patent US7541472B2 (priority 2004, dated 2009).

What was measured:
Test in all cases: microbe, parasite or virus in culture
Type in all cases: cell-based
[1] = system: Phytophthora infestans; details: for IC50 P. infestans: fungal growth on 1.5% agar minimal media, 20° C., 3-5 days, 3-fold serial dilutions, C.V. class in parentheses; for IC50: Phytophthora infestans, read-out: IC50 P. infestans
[2] = system: Botrytis cinerea; details: read-out: IC50 B. cinerea
[3] = system: Septoria tritici; details: for IC50: Zymoseptoria tritici, read-out: IC50 S. tritici
[4] = system: Stagonospora nodorum; details: for IC50: Parastagonospora nodorum, read-out: IC50 S. nodorum

Row | SMILES | IC50 P. infestans [1] | IC50 [2] [µM] | IC50 S. tritici [3] | IC50 S. nodorum [4] | IC50 [1] [µM] | IC50 [3] [µM] | IC50 [4] [µM]
1 | C=C(C(=O)OCc1ccc(Cl)c(Cl)c1)C(O)c1nccs1 (stereo not drawn) [Compound 4, 3,4-Dichlorophenylmethyl β-hydroxy-α-methylene-2-thiazolepropanoate] | B (d) | < 5 | B (b) | C (b) | – | – | –
2 | C=C(C(=O)OCc1ccc(Oc2cccc(Cl)c2)cc1)C(O)c1cccnc1 (stereo not drawn) [Compound 24, 4-(3-Chlorophenoxy)phenylmethyl β-hydroxy-α-methylene-3-pyridinepropanoate] | – | > 25 | A (d) | C (c) | 16 to 25 | – | –
3 | C=C(C(=O)OCc1ccc(Oc2ccccc2)cc1)C(O)c1nccs1 (stereo not drawn) [Compound 30, 4-Phenoxyphenylmethyl β-hydroxy-α-methylene-2-thiazolepropanoate] | A (b) | 16 to 25 | – | – | – | 6 to 15 | > 25
4 | C=C(C(=O)OCc1ccc(Oc2ccccc2)cc1)C(O)c1cccnc1 (stereo not drawn) [Compound 28, 4-Phenoxyphenylmethyl β-hydroxy-α-methylene-3-pyridinepropanoate] | B (a) | – | – | – | – | < 5 | 6 to 15
5 | O=C(OCc1cccc(C(F)(F)F)c1)/C(=C\c1ccccc1)C(O)c1cccnc1 (stereo not drawn) [Compound 5, 3-(Trifluoromethyl)phenylmethyl Z-α-(α-hydroxy-3-pyridylmethyl)-3-phenylpropenoate] | – | > 25 | A (b) | A (b) | > 25 | – | –
6 | C=C(C(=O)Oc1ccc(Cl)cc1)C(O)c1cccnc1 (stereo not drawn) [Compound 19, 4-Chlorophenyl β-hydroxy-α-methylene-3-pyridinepropanoate] | A (c) | > 25 | A (c) | C (c) | – | – | –
